Results as given in patent publication US20250263753A1, “BRIDGED CYCLE-BASED INHIBITORS OF DNA-DEPENDENT PROTEIN KINASE AND COMPOSITIONS AND APPLICATION IN GENE EDITING” (Juno Therapeutics, Inc., priority 2023, published 2025).
pIC50: −log10 of the molar value. Where two headings read alike, the source gives them in different places.

Key:
ATM = ATM (Homo sapiens (Human), UniProt Q13315); assay: ATM biochemical assay (Reaction Biology HTRF kinase assay, 10 μM ATP)
In short: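 HTRF kinase assay with N-terminal GST-tagged human p53 (aa2-393) substrate, 10 μM ATP, in 50 mM Hepes pH 7.5, 10 mM MnCl2, 1% DMSO. Enzyme preincubated with compound 30 min, reaction 2 h at room temperature. pS15 phosphorylation read by Eu-cryptate anti-p53-pS15/anti-GST-d2 HTRF (615/665 nm).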

[1] = biological target: PI3Kα (His-PIK3CA/PIK3R1, p110 alpha/p85 alpha) (Homo sapiens (Human), UniProt P42336); assay: PI3Kα biochemical assay (HTRF/FRET probe); assay type: binding; conditions: class symbol
Experimental: Phosphoinositide 3-kinase α (PI3Kα) Biochemical Assay: A solution was prepared containing 0.2 nM Anti-HIS-Terbium (Cisbio, 64CUSTAZU), 3.7 nM designed-probe and 1.0 nM His-PIK3CA/PIK3R1 (p110 alpha/p85 alpha) in FRET Buffer (20 mM HEPES, 10 mM MgCl2, 0.015% Brij-35, 4 mM DTT, 0.05 mg/mL BSA).

PI3Kβ = PI3Kβ (Homo sapiens (Human), UniProt P42338); assay: PI3Kβ biochemical assay (Reaction Biology ADP-Glo); conditions: class symbol
Experimental: Phosphoinositide 3-kinase R (PI3KP) Biochemical Assay using Reaction Biology's ADP-Glo Assay Platform:
Step 1: Lipid kinases: Reaction Biology Corporation (RBC) currently offers lipid kinases in ADP-Glo format
Step 2: Assay Description Assay principle: The kinase reactions utilize ATP and produce ADP as a byproduct. The ADP production is quantified by ADP-Glo luminescence detection. This is a 3-step reaction: First, the kinase reaction with lipid substrate is carried out in the presence of ATP, and the reaction is quenched and depleted remaining ATP with ADP-Glo™ reagent, and then finally ADP is converted to ATP which is measured using a luciferase/luciferin reaction.
Step 3: Assay Procedure: 1. Prepare kinase in freshly prepared Reaction Buffer, kinase without substrate is delivered to background wells; 2. Deliver substrate into the kinase solution and gently mix, deliver to assay wells; 3. Deliver compounds in 100% DMSO into the kinase reaction mixture by Acoustic technology (Echo550; nanoliter range), incubate for 20 min at room temperature; 4. Deliver ATP into the reaction mixture to initiate the reaction; 5. Incubate for 60 min at 30° C.; 6. Quench the reaction with ADP-Glo reagent and incubate for 40 min; 7. Add Detection Mixture and incubate for 30 min; 8. Measure luminescence.
Step 4: Data Analysis: The luminescence is converted into M ADP production based on ADP standard curves. The nonlinear regression to obtain the standard curve and IC50 values are performed using Graphpad Prism software.

DNA-PK = DNA-PK (Homo sapiens (Human), UniProt P78527); assay: DNA-PK biochemical assay (Reaction Biology HotSpot kinase assay, 10 μM ATP)
In short: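 Radiometric 33P-ATP kinase reaction in 20 mM Hepes pH 7.5, 10 mM MgCl2, 1 mM EGTA, 2 mM DTT, 1% DMSO. Compound preincubated with kinase and substrate 20 min at room temperature, then reaction run 2 h at room temperature after ATP addition. Activity read by P81 filter binding.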

[2] = biological target: PI3Kδ (His-PIK3CD/PIK3R1, p110 delta/p85 alpha) (Homo sapiens (Human), UniProt O00329); assay: PI3Kδ biochemical assay (HTRF/FRET probe); assay type: binding; conditions: class symbol
Experimental: Phosphoinositide 3-kinase (PI3K) Biochemical Assay: A solution was prepared containing 0.2 nM Anti-HIS-Terbium (Cisbio, 64CUSTAZU), 40 nM designed-probe and 1.0 nM His-PIK3CD/PIK3R1 (p110 delta/p85 alpha) in FRET Buffer (20 mM HEPES, 10 mM MgCl2, 0.015% Brij-35, 4 mM DTT, 0.05 mg/mL BSA).

[3] = read-out: ATM HTRF 10 μM ATP IC50, class symbol
[4] = read-out: DNA-PK HotSpot 10 μM ATP IC50, class symbol

PI3Kβ, sequence (P42338 whole entry): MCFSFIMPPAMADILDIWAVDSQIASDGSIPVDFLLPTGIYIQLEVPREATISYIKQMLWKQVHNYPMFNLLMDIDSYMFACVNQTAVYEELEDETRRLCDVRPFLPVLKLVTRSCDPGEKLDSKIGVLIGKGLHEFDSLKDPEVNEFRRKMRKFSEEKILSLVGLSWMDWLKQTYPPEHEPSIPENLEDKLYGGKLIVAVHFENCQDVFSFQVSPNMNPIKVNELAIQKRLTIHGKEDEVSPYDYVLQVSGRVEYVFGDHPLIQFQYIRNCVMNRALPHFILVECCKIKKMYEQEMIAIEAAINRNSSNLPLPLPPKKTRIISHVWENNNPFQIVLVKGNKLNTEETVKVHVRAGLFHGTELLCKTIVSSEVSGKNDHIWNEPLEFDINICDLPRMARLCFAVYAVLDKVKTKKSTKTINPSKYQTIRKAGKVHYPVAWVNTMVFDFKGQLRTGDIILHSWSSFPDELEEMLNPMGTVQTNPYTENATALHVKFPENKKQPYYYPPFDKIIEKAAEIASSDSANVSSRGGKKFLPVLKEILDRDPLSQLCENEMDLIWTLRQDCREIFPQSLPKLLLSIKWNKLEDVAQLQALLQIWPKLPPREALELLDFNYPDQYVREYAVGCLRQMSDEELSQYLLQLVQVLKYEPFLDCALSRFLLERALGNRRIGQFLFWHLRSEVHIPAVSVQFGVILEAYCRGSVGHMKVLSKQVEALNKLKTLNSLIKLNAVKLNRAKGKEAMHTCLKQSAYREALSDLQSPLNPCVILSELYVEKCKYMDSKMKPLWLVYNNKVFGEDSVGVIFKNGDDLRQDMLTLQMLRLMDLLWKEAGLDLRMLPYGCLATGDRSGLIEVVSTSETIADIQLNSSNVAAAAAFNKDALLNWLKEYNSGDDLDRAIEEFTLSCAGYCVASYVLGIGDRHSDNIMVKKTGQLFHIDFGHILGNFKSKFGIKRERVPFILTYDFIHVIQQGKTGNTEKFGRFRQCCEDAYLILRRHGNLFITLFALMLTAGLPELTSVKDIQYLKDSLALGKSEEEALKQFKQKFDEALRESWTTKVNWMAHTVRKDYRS
PI3Kβ, sequence (P27986 whole entry partner): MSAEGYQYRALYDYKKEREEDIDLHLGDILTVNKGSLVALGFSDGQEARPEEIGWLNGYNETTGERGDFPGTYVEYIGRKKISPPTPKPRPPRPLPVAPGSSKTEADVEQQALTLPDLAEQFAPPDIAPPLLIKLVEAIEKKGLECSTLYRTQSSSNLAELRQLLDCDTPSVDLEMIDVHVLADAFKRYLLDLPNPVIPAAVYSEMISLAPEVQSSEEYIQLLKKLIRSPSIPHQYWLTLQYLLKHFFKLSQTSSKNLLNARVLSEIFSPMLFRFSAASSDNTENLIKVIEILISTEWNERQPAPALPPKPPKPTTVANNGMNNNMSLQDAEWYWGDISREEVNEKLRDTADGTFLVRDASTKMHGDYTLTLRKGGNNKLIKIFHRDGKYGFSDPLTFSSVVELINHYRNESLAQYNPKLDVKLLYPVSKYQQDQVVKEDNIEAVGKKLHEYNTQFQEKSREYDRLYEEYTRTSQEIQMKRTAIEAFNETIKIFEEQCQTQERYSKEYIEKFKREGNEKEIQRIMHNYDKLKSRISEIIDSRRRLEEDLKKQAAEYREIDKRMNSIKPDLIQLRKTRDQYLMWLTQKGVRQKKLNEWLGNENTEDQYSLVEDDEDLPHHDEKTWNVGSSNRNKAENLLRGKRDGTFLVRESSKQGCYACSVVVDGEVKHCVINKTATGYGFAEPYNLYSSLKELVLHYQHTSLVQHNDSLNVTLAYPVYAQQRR
ATM, sequence (Q13315 whole entry, the tested form may be a part): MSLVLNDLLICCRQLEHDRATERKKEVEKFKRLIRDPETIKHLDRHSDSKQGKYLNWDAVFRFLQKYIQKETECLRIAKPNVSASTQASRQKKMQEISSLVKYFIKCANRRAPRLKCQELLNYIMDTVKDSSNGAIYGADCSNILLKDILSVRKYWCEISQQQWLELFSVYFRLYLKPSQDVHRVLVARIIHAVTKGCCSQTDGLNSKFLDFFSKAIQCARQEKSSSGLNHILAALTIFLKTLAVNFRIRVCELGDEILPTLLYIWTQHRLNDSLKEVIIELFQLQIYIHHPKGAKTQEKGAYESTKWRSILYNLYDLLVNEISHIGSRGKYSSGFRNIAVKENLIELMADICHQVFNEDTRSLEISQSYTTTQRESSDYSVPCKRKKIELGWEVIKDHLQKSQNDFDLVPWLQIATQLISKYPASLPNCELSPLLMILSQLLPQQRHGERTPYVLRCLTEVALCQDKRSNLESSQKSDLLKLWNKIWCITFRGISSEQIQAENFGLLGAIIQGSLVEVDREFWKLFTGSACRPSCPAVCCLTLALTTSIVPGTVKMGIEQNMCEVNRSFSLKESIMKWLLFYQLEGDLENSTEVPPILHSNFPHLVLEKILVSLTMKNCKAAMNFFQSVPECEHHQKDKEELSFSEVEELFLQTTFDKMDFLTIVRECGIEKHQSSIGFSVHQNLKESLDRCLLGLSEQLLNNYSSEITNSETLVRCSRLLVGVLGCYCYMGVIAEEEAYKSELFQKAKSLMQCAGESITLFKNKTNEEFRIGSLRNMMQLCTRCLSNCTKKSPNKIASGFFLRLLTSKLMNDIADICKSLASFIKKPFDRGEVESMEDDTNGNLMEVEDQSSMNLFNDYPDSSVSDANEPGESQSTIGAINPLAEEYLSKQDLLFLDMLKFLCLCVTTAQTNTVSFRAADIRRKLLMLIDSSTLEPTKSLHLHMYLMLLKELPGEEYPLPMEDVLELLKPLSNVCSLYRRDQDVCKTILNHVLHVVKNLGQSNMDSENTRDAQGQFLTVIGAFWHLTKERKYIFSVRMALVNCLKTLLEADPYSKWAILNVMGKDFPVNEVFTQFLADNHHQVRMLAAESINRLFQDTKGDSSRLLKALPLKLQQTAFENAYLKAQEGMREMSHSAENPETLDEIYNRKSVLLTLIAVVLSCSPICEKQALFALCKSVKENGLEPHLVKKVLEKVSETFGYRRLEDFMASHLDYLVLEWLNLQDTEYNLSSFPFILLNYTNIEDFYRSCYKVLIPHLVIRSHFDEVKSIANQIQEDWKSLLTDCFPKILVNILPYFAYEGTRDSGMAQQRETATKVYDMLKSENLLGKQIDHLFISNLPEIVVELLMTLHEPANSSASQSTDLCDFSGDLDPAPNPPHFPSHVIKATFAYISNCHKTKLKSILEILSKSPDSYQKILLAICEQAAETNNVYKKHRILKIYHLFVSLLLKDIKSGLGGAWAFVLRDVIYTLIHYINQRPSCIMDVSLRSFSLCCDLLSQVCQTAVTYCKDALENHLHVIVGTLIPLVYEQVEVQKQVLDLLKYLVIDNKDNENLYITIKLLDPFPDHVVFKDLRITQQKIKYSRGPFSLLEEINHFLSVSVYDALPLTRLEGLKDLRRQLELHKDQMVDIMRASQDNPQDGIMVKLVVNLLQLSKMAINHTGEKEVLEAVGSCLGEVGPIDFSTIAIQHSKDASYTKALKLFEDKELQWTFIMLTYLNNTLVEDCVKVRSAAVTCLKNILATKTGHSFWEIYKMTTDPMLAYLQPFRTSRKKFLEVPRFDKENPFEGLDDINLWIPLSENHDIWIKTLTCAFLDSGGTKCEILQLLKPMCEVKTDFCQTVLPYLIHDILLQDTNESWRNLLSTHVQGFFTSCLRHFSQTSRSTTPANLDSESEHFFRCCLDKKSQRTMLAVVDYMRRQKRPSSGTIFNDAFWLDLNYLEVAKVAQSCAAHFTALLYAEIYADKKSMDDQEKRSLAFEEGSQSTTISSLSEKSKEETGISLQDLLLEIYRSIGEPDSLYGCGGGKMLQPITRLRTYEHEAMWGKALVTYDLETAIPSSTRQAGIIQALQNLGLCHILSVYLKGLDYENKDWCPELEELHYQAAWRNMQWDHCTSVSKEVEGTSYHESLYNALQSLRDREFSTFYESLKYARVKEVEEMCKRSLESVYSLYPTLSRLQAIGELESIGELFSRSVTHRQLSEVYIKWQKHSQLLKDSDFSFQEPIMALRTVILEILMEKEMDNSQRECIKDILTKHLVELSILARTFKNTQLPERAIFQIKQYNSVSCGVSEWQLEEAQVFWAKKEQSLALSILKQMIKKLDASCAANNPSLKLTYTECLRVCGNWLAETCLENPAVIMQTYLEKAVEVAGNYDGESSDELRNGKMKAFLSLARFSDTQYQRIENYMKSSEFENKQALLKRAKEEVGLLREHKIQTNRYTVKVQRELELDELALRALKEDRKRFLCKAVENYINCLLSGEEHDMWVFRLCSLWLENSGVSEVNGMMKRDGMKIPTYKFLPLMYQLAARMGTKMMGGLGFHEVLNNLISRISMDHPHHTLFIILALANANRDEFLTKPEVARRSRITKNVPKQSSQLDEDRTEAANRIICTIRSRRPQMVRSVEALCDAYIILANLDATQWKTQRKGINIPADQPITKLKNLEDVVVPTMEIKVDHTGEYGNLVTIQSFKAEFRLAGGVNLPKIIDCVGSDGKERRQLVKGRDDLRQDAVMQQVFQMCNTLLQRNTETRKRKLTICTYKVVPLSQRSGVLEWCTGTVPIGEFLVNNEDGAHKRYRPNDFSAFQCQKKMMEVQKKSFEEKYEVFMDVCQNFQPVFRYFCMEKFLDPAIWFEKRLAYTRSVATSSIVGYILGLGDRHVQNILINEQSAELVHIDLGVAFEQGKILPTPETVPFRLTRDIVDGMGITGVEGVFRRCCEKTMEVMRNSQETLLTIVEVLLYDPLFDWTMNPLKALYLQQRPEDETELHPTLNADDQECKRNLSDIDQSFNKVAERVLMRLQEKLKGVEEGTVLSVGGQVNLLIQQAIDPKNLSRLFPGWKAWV

Structure (SMILES)	pIC50 (ATM; [3])	pIC50 [1]	pIC50 (PI3Kβ)	pIC50 (DNA-PK; class symbol)	pIC50 [2]	pIC50 (ATM; class symbol)	pIC50 (DNA-PK; [4])
Cc1cc2c(cc1Nc1ncc3c(n1)n(C14CC(F)(C1)C4)c(=O)n3C)OCO2 [Compound 13, 9-(3-fluorobicyclo[1.1.1]pentan-1-yl)-7-methyl-2-((6-methylbenzo[d][1,3]dioxol-5-yl)amino)-7,9-dihydro-8H-purin-8-one]	≤ 6.00	≤ 6.00	≤ 6.00	8.00 to 9.00	≤ 6.00		
Cc1cc2ncnn2cc1Nc1ncc2c(n1)n(C1CC3CCC1CC3)c(=O)n2C (stereo not shown) [Compound 42, 9-((1s,4s)-bicyclo[2.2.2]octan-2-yl)-7-methyl-2-((7-methyl-[1,2,4]triazolo[1,5-a]pyridin-6-yl)amino)-7,9-dihydro-8H-purin-8-one]		6.00 to 7.00	6.00 to 7.00		≤ 6.00	7.00 to 8.00	> 9.00
COC12CCC(n3c(=O)n(C)c4cnc(Nc5cn6ncnc6cc5C)nc43)(CC1)C2 [Compound 6, 9-(4-methoxybicyclo[2.2.1]heptan-1-yl)-7-methyl-2-((7-methyl-[1,2,4]triazolo[1,5-a]pyridin-6-yl)amino)-7,9-dihydro-8H-purin-8-one]		6.00 to 7.00	6.00 to 7.00		≤ 6.00	7.00 to 8.00	> 9.00
COC12CCC(n3c(=O)n(C)c4cnc(Nc5cc6c(cc5C)OCO6)nc43)(CC1)C2 [Compound 7, 9-(4-methoxybicyclo[2.2.1]heptan-1-yl)-7-methyl-2-((6-methylbenzo[d][1,3]dioxol-5-yl)amino)-7,9-dihydro-8H-purin-8-one]		6.00 to 7.00	≤ 6.00		≤ 6.00	6.00 to 7.00	> 9.00
Cc1cc2c(cc1Nc1ncc3c(n1)n([C@H]1C[C@@H]4CC[C@H]1C4)c(=O)n3C)OCO2 [Compound 46, 9-((1S,2S,4R)-bicyclo[2.2.1]heptan-2-yl)-7-methyl-2-((6-methylbenzo[d][1,3]dioxol-5-yl)amino)-7,9-dihydro-8H-purin-8-one]		≤ 6.00	≤ 6.00		≤ 6.00	6.00 to 7.00	> 9.00
Cc1cc2c(cc1Nc1ncc3c(n1)n(C14CCC(O)(CC1)C4)c(=O)n3C)OCO2 [Compound 2, 9-(4-hydroxybicyclo[2.2.1]heptan-1-yl)-7-methyl-2-((6-methylbenzo[d][1,3]dioxol-5-yl)amino)-7,9-dihydro-8H-purin-8-one]		≤ 6.00	≤ 6.00		≤ 6.00	6.00 to 7.00	> 9.00
Cc1cc2c(cc1Nc1ncc3c(n1)n(C1CC4CCC1CC4)c(=O)n3C)OCO2 (stereo not shown) [Compound 43, 9-((1s,4s)-bicyclo[2.2.2]octan-2-yl)-7-methyl-2-((6-methylbenzo[d][1,3]dioxol-5-yl)amino)-7,9-dihydro-8H-purin-8-one]		≤ 6.00	≤ 6.00		≤ 6.00	6.00 to 7.00	> 9.00
Cc1cc2ncnn2cc1Nc1ncc2c(n1)n(C13CC(F)(C1)C3)c(=O)n2C [Compound 12, 9-(3-fluorobicyclo[1.1.1]pentan-1-yl)-7-methyl-2-((7-methyl-[1,2,4]triazolo[1,5-a]pyridin-6-yl)amino)-7,9-dihydro-8H-purin-8-one]		≤ 6.00	≤ 6.00		≤ 6.00	6.00 to 7.00	> 9.00
Cc1cc2ncccc2cc1Nc1ncc2c(n1)n(C13CC(F)(C1)C3)c(=O)n2C [Compound 11, 9-(3-fluorobicyclo[1.1.1]pentan-1-yl)-7-methyl-2-((7-methylquinolin-6-yl)amino)-7,9-dihydro-8H-purin-8-one]		6.00 to 7.00	6.00 to 7.00		≤ 6.00	7.00 to 8.00	> 9.00
Cc1cc2ncccc2cc1Nc1ncc2c(n1)N(C13CC(F)(C1)C3)C(=O)C21CC1 [Compound 71, 7′-(3-fluorobicyclo[1.1.1]pentan-1-yl)-2′-((7-methylquinolin-6-yl)amino)spiro[cyclopropane-1,5′-pyrrolo[2,3-d]pyrimidin]-6′(7′H)-one]		6.00 to 7.00			≤ 6.00	6.00 to 7.00	> 9.00
Cc1cc2c(cc1Nc1ncc3c(n1)N(C14CCC(O)(CC1)C4)CC(=O)N3C)OCO2 [Compound 52, 8-{4-Hydroxybicyclo[2.2.1]heptan-1-yl}-5-methyl-2-[(6-methyl-2H-1,3-benzodioxol-5-yl)amino]-5,6,7,8-tetrahydropteridin-6-one]	≤ 6.00	≤ 6.00		7.00 to 8.00	≤ 6.00		
Cc1cc2c(cc1Nc1ncc3c(n1)n(C14CCC(O)(CC1)CC4)c(=O)n3C)OCO2 [Compound 27, 9-(4-hydroxybicyclo[2.2.2]octan-1-yl)-7-methyl-2-((6-methylbenzo[d][1,3]dioxol-5-yl)amino)-7,9-dihydro-8H-purin-8-one]		7.00 to 8.00			≤ 6.00	7.00 to 8.00	> 9.00
COCC12CC(n3c(=O)n(C)c4cnc(Nc5cn6ncnc6cc5C)nc43)(C1)C2 [Compound 20, 9-(3-(methoxymethyl)bicyclo[1.1.1]pentan-1-yl)-7-methyl-2-((7-methyl-[1,2,4]triazolo[1,5-a]pyridin-6-yl)amino)-7,9-dihydro-8H-purin-8-one]		6.00 to 7.00		8.00 to 9.00	≤ 6.00	8.00 to 9.00	
Cc1cc2c(cc1Nc1ncc3c(n1)n(C14CC(F)(C1)C4)c(=O)n3C)OCCO2 [Compound 16, 9-(3-fluorobicyclo[1.1.1]pentan-1-yl)-7-methyl-2-((7-methyl-2,3-dihydrobenzo[b][1,4]dioxin-6-yl)amino)-7,9-dihydro-8H-purin-8-one]		≤ 6.00		7.00 to 8.00	≤ 6.00	6.00 to 7.00	
Cc1cc2nccnc2cc1Nc1ncc2c(n1)N(C13CCC(O)(CC1)C3)CC(=O)N2C [Compound 59, 8-(4-hydroxybicyclo[2.2.1]heptan-1-yl)-5-methyl-2-((7-methylquinoxalin-6-yl)amino)-7,8-dihydropteridin-6(5H)-one]		6.00 to 7.00			6.00 to 7.00	7.00 to 8.00	> 9.00
Cc1cc2ncnn2cc1Nc1ncc2c(n1)N(C13CC(F)(C1)C3)CC(=O)N2C [Compound 54, 8-{3-Fluorobicyclo[1.1.1]pentan-1-yl}-5-methyl-2-({7-methyl-[1,2,4]triazolo[1,5-a]pyridin-6-yl}amino)-5,6,7,8-tetrahydropteridin-6-one]	≤ 6.00	≤ 6.00		8.00 to 9.00	≤ 6.00		
Cc1cc2c(cc1Nc1ncc3c(n1)n(C14CC(F)(C1)C4)c(=S)n3C)OCO2 [Compound 35, 9-(3-fluorobicyclo[1.1.1]pentan-1-yl)-7-methyl-2-((6-methylbenzo[d][1,3]dioxol-5-yl)amino)-7,9-dihydro-8H-purine-8-thione]	≤ 6.00	≤ 6.00		6.00 to 7.00	≤ 6.00		
COC12CCC(N3CC(=O)N(C)c4cnc(Nc5cc6cccnc6cc5C)nc43)(CC1)C2 [Compound 65, 8-(4-methoxybicyclo[2.2.1]heptan-1-yl)-5-methyl-2-((7-methylquinolin-6-yl)amino)-7,8-dihydropteridin-6(5H)-one]		7.00 to 8.00			6.00 to 7.00	8.00 to 9.00	> 9.00
Cc1cc2c(cc1Nc1ncc3c(n1)n(C14CC(C(F)(F)F)(C1)C4)c(=O)n3C)OCO2 [Compound 19, 7-methyl-2-((6-methylbenzo[d][1,3]dioxol-5-yl)amino)-9-(3-(trifluoromethyl)bicyclo[1.1.1]pentan-1-yl)-7,9-dihydro-8H-purin-8-one]		≤ 6.00		8.00 to 9.00	≤ 6.00	6.00 to 7.00	
